These results are taken from US20240165199A1, “PROX1 PREVENTS MYXOMATOUS VALVE DISEASE BY INHIBITING PDGF-B SIGNALING” (Oklahoma Medical Research Foundation, priority 2022, published 2024).

For one experiment, the target named is c-Kit (Homo sapiens, UniProt P10721). The conditions noted are these: cited from earlier work.
Another experiment addresses PDGFRα (Homo sapiens, UniProt P16234). The settings on record: cited from earlier work.
The target of another experiment is PDGFRβ (Homo sapiens, UniProt P09619). The settings on record: not specific for PDGFRβ; cited from earlier work.
Sequence of PDGFRβ (P09619 33-1106): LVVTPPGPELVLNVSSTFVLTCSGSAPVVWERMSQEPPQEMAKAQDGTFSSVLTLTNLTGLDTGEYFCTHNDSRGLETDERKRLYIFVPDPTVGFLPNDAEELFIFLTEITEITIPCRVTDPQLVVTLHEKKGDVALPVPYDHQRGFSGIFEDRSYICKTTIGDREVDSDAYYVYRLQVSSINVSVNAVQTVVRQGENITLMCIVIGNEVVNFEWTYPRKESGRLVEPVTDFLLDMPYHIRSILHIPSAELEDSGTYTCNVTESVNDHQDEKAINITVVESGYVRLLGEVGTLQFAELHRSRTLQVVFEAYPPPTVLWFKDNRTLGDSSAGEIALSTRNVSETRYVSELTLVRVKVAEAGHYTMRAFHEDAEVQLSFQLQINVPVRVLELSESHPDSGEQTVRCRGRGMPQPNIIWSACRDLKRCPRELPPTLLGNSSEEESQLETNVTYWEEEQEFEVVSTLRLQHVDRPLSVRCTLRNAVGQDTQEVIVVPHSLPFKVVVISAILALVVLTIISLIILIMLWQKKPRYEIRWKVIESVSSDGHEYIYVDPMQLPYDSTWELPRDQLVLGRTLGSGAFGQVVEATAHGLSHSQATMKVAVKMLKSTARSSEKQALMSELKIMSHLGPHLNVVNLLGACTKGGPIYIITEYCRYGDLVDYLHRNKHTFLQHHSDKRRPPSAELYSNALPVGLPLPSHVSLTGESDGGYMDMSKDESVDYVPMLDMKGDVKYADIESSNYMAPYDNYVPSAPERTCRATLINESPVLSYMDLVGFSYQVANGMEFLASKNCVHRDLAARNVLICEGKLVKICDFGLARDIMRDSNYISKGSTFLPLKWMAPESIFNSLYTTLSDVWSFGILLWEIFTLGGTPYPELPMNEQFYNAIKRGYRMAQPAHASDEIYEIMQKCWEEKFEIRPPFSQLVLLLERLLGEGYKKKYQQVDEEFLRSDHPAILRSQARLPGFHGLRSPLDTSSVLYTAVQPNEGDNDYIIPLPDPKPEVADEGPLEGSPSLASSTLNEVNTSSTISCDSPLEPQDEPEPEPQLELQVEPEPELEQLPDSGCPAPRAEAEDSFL
Experiment [1] relates to patients with PDGFRβ hyperactivating mutations. The settings on record: cited from earlier work.
For the next experiment, the system named is Prox1^ΔVEC mice. The settings on record: 50 mg/kg body weight/day oral; for aortic peak velocity: 24 weeks from 1 month of age, echocardiography, vs untreated Prox1^ΔVEC mice; for aortic peak velocity / platelet aggregate-like (thrombus-like) structures in aortic valves / abnormal elastin expression/distribution in aortic valves / aortic valve thickness (progressive thickening) / versican expression in aortic valves: 50 mg/kg/day; for platelet aggregate-like (thrombus-like) structures in aortic valves / abnormal elastin expression/distribution in aortic valves / aortic valve thickness (progressive thickening) / versican expression in aortic valves: 24 weeks; for platelet aggregate-like (thrombus-like) structures in aortic valves: Movat Pentachrome-stained sections; for abnormal elastin expression/distribution in aortic valves: downstream side of aortic valves; for aortic valve thickness (progressive thickening): histology, area of valve leaflets; for versican expression in aortic valves: immunohistochemistry; for valve defects / progression of valve disease: mice lacking Prox1 (Prox1^ΔVEC).

“Also recorded” adds a separate entry of the source. Where two headings read alike, the source gives them in different places.

Sequence of PDGFRα (P16234 24-1089, species assumed): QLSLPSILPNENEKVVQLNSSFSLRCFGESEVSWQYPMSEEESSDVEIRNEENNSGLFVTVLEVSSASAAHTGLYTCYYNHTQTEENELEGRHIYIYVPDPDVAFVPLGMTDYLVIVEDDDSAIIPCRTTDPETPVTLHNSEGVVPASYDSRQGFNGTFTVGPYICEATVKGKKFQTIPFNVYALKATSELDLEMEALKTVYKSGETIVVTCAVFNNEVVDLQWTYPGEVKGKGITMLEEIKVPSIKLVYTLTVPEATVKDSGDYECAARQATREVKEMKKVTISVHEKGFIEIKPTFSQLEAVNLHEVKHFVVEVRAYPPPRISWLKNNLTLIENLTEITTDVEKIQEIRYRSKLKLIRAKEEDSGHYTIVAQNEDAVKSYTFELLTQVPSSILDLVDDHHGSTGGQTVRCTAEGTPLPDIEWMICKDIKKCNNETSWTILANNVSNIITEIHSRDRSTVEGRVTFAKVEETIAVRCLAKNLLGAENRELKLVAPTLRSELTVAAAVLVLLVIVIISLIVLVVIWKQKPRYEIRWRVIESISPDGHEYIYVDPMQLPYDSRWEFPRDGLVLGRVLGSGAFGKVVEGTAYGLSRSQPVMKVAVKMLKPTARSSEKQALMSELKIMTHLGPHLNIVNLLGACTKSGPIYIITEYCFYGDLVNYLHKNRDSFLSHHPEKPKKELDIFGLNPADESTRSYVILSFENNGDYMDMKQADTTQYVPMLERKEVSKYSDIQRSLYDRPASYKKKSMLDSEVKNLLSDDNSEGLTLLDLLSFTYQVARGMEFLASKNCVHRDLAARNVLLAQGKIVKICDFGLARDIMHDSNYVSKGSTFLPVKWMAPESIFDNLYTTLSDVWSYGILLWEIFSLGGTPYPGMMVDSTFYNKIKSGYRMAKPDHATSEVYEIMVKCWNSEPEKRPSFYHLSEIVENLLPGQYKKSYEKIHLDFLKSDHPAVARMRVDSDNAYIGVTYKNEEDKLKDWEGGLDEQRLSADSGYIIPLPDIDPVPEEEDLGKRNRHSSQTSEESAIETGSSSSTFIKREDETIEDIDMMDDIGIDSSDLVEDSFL
Sequence of c-Kit (P10721 26-976): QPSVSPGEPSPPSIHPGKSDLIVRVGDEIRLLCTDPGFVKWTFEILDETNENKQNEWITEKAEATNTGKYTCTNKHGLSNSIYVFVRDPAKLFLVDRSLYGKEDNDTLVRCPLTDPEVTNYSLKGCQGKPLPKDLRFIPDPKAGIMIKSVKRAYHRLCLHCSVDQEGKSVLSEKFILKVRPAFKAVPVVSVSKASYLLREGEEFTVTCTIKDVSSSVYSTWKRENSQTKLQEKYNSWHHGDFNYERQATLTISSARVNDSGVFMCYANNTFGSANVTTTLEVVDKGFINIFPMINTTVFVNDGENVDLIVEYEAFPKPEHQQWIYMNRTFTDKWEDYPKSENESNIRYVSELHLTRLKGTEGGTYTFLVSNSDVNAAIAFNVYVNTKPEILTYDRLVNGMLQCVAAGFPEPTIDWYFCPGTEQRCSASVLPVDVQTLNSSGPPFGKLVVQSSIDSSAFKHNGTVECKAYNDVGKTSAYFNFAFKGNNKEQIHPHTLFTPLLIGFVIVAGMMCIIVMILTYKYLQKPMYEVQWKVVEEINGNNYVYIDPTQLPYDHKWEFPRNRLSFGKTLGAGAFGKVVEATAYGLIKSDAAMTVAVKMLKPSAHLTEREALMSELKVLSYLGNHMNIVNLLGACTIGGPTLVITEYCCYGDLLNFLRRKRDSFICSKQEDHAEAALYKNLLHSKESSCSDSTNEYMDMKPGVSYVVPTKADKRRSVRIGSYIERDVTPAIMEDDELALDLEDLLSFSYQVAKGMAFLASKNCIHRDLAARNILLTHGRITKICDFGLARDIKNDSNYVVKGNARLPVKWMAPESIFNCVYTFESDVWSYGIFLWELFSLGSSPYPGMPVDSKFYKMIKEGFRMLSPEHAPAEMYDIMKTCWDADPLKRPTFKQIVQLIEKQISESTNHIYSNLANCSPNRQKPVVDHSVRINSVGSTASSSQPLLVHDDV

`Cc1ccc(NC(=O)c2ccc(CN3CCN(C)CC3)cc2)cc1Nc1nccc(-c2cccnc2)n1` [imatinib]: the “inhibition of kinase activity” value at c-Kit was “inhibits the activity”. In addition, the “inhibition of kinase activity” value on PDGFRα was “inhibits the activity”. For the same compound, the “inhibition of kinase activity” value at PDGFRβ is reported as “inhibits the activity”. For the same compound, the connective tissue disorders result in experiment [1] is listed as “ameliorated”. Further, in the experiment on Prox1^ΔVEC mice (Prox1^ΔVEC mice, 6 months), the “elastin expression in mitral valves” value is reported as “significantly normalized”; the “expression of SOX9 in the aortic and mitral valves” value was “normalized”; the “thickness of the mitral valves” value was “did not reduce”; the “versican expression in mitral valves” value is “significantly normalized”. In addition, in the experiment with Prox1^ΔVEC mice (Prox1^ΔVEC mice), the aortic peak velocity entry is listed as “preventing an increase in peak velocity”, the “platelet aggregate-like (thrombus-like) structures in aortic valves” value is on record as “reduced by imatinib treatment”, the “abnormal elastin expression/distribution in aortic valves” value is recorded as “significantly reduced” and the “aortic valve thickness (progressive thickening)” value is “does not ameliorate the progressive thickening”. In addition, the “versican expression in aortic valves” value with Prox1^ΔVEC mice (Prox1^ΔVEC mice) is “reduced the expression of versican”. Besides, in the experiment on Prox1^ΔVEC mice (Prox1^ΔVEC mice, listed as Imb), the aortic peak velocity result is “lowered aortic peak velocity”, the “platelet aggregate-like (thrombus-like) structures in aortic valves” value is “reduced”, the “abnormal elastin expression/distribution in aortic valves” value was “rescued” and the “aortic valve thickness (progressive thickening)” value is recorded as “not reduced”. Further, the “versican expression in aortic valves” value in the experiment with Prox1^ΔVEC mice (Prox1^ΔVEC mice, listed as Imb) is “inhibited”. For the same compound, the “valve defects / progression of valve disease” value in the experiment with Prox1^ΔVEC mice (6 months) is “partially rescue the valve defects; also recorded: prevents the progression of valve disease”. Further, the “valve defects / progression of valve disease” value with Prox1^ΔVEC mice (6 months, listed as Imatinib) is “Attenuates Aortic Valve Degeneration”.
